{"source": "patent US6495537B1", "about": "“Method for inhibition of photocarcinogenesis or photoimmunosuppression using niacin” (University of Kentucky Research Foundation, priority 1998, dated 2002)", "key": {"UVM12 tumor cells": {"test_system": "UVM12 tumor cells", "conditions": "32 days after tumor challenge, 0% niacin 91.6, unirradiated control 21.9", "procedure": "(§1) The mice were exposed to UV radiation after three weeks of oral niacin administration. The animals were shaved dorsally with animal clippers each week. The filter tops, food, and water bottles were removed from the microisolators while mice were exposed to UV radiation emitted by banks of six FS40 Westinghouse fluorescent sun lamps for 30 min per day, five days per week. This UV regimen continued for 22 weeks in the carcinogenesis experiments, and for 11 weeks in the passive transfer assay experiments. The cages were systemically rotated during the study to compensate for any differences in flux at different positions under the lamps. The FS40 lamps emit a continuous spectrum from 270 to 390 nm with peak emission at 313 nm. About 75% of the energy output is in the wavelength range of 280-340 nm with about 23% in the 340-390 nm range. The total UVB radiation dose was approximately 1.41×10^6 Jm^−2 in the carcinogenesis experiments, and about […] in the passive transfer experiments, as measured with a UVX Digital Radiometer with a UVX-31 sensor (Ultraviolet Products, San Gabriel, Calif.).\n(§2) Differences in primary tumor incidence between the experimental groups were analyzed by the Wilcoxon rank sum test. […] For the NAD assay, the Q test was first applied to the data to determine whether questionable values should be rejected. This test was conducted at the 95% confidence level. The data were then analyzed using the MIXED procedure in the statistical analysis program SAS 6.11. […] In this manner, it was possible to first account for differences and variability in duplicate or triplicate samples from the same mouse before the differences between each mouse in each group was compared. This procedure resulting in more precise group means than if each single value carried equal weight. Least-squares means for each group were calculated, and a multiple comparison between these means was made after applying a Tukey-Kramer adjustment for the p-values."}, "UV-induced skin tumors": {"test_system": "UV-induced skin tumors", "conditions": "for number of tumors per mouse: 26.5 weeks after first UV treatment, basal diet 0.72; for skin tumor incidence: UV-irradiated mice, 26.5 weeks after first UV exposure, unsupplemented 68%", "procedure": "Six-week-old specific-pathogen-free female BALB/cAnNTacfBR (H-2^d) mice were purchased from Taconic Laboratory Animals (Germantown, N.Y.) and quarantined from two weeks before treatment. Animals were housed in microisolators under barrier conditions with a 12:12-hour light-dark cycle at 20+/−2° C. (SD).\n(§3) Groups of 25 mice each received the basal diet which consisted of the American Institute of Nutrition 76A rodent diet containing 10% corn oil and 30 mg niacin per kilogram diet, supplemented with 0, 0.1, 0.5, or 1.0% niacin (Dyets Inc. Bethlehem, Pa.). All diets were pelleted (Dyets Inc.) without heat or steam and stored under refrigeration for less than 10 weeks. Animals were fed ad libitum and given fresh diet three times per week for three weeks before UV treatments began, and throughout the study. Niacin intakes were calculated from the diet consumed. Animals were supplied with sterilized water ad libitum.\nas §1, §2\nGroups of 25 mice each were fed the AIN76A rodent diet containing 10% corn oil and 30 mg niacin per kilogram diet, supplemented with 0, 0.1, 0.5, or 1.0% niacin. After three weeks of this diet, dorsally shaved mice were exposed to UV radiation for 30 min per day, five days per week for 22 weeks."}, "skin NAD": {"test_system": "skin NAD", "procedure": "as §2"}, "[1]": {"conditions": "for Body Weight: mean; for Food Consumed: mean (SD)", "procedure": "as §3\nNiacin ingestion was calculated from diet consumption recorded on 50% of the animals of each group."}, "[2]": {"conditions": "diet supplemented with 0.1% niacin"}}, "note": "Where two headings read alike, the source gives them in different places."}
{"smiles": "O=C(O)c1cccnc1", "note": "[niacin]", "values": [{"measurement": "mean tumor size", "setting": "UVM12 tumor cells; recipients of splenocytes from UVB-irradiated donors on 0.1% niacin", "value": "79.8(+/−11.5) sq mm"}, {"measurement": "mean tumor size", "setting": "UVM12 tumor cells; recipients of splenocytes from UVB-irradiated donors on 0.5% niacin", "value": "41.9 (+/−11.7) sq mm"}, {"measurement": "mean tumor size", "setting": "UVM12 tumor cells; recipients of splenocytes from UVB-irradiated donors on 1.0% niacin", "value": "13.2(+/−4.1) sq mm"}, {"measurement": "number of tumors per mouse", "setting": "UV-induced skin tumors; [2]", "value": 0.6, "unit": "%"}, {"measurement": "skin tumor incidence", "setting": "UV-induced skin tumors; [2]", "value": 60, "unit": "%"}, {"measurement": "number of tumors per mouse", "setting": "UV-induced skin tumors; diet supplemented with 0.5% niacin", "value": 0.48, "unit": "%"}, {"measurement": "skin tumor incidence", "setting": "UV-induced skin tumors; diet supplemented with 0.5% niacin, p=0.0257", "value": 48, "unit": "%"}, {"measurement": "number of tumors per mouse", "setting": "UV-induced skin tumors; diet supplemented with 1.0% niacin", "value": 0.4, "unit": "%"}, {"measurement": "skin tumor incidence", "setting": "UV-induced skin tumors; diet supplemented with 1.0% niacin, p=0.0257", "value": 28, "unit": "%"}, {"measurement": "skin NAD content vs UV-irradiated mice receiving no additional niacin", "setting": "skin NAD; 0.5% niacin supplementation, p<0.0001 dorsal skin, p=0.0114 ventral skin", "value": "significantly higher skin NAD content"}, {"measurement": "skin NAD content vs UV-irradiated mice receiving no additional niacin", "setting": "skin NAD; 1.0% niacin supplementation, p=0.0025 dorsal skin, p=0.0017 ventral skin", "value": "significantly higher skin NAD content"}, {"measurement": "body weights of UV-irradiated mice, with or without supplemental niacin", "setting": "[1]; 0.1, 0.5 or 1.0% niacin diets vs basal diet", "value": "similar"}, {"measurement": "Body Weight", "setting": "[1]; +UV +0.1% niacin diet", "value": 18.2, "unit": "grams"}, {"measurement": "Food Consumed", "setting": "[1]; +UV +0.1% niacin diet", "value": "2.47 (0.54) g/mouse/day"}, {"measurement": "Body Weight", "setting": "[1]; +UV +0.5% niacin diet", "value": 18.07, "unit": "grams"}, {"measurement": "Food Consumed", "setting": "[1]; +UV +0.5% niacin diet", "value": "2.77 (0.66) g/mouse/day"}, {"measurement": "Body Weight", "setting": "[1]; +UV +1% niacin diet", "value": 18.55, "unit": "grams"}, {"measurement": "Food Consumed", "setting": "[1]; +UV +1% niacin diet", "value": "2.88 (0.60) g/mouse/day"}]}
